Laboratory results taken from PubChem BioAssay (NCI).
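How tested: cells in 96-well plates exposed to compound for 48 hours at five concentrations. The concentration for full growth arrest is given as TGI.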

Legend:
Assay in all cases: growth of human tumour cells (NCI), 48 h
786-0 renal = system: 786-0 renal
CAKI-1 renal = system: CAKI-1 renal
CCRF-CEM leukemia = system: CCRF-CEM leukemia
HT29 colon = system: HT29 colon
K-562 leukemia = system: K-562 leukemia
M14 melanoma = system: M14 melanoma
MDA-N = system: MDA-N
RXF 393 renal = system: RXF 393 renal
SF-295 CNS = system: SF-295 CNS
SK-MEL-28 melanoma = system: SK-MEL-28 melanoma
SR leukemia = system: SR leukemia
SW-620 colon = system: SW-620 colon
TK-10 renal = system: TK-10 renal
UACC-257 melanoma = system: UACC-257 melanoma
BT-549 breast = system: BT-549 breast
T-47D breast = system: T-47D breast

SMILES | TGI (786-0 renal) | TGI (CAKI-1 renal) | TGI (CCRF-CEM leukemia) | TGI (HT29 colon) | TGI (K-562 leukemia) | TGI (M14 melanoma) | TGI (MDA-N) | TGI (RXF 393 renal) | TGI (SF-295 CNS) | TGI (SK-MEL-28 melanoma) | TGI (SR leukemia) | TGI (SW-620 colon) | TGI (TK-10 renal) | TGI (UACC-257 melanoma) | TGI (BT-549 breast) | TGI (T-47D breast)
COC(=O)CC1(O)C(/C=C/c2ccccc2)C(C(=O)OC)C(=O)C(C(=O)OC)C1C(=O)OC (stereo unspecified) | > 100 µM | > 100 µM | > 100 µM | > 100 µM | > 100 µM | > 100 µM | > 100 µM | > 100 µM | > 100 µM | > 100 µM | > 100 µM | > 100 µM | > 100 µM | > 100 µM |  | 
Cc1ccc(S(=O)(=O)NC2=NS(=O)(=O)c3cc(C)c(Cl)cc3S2)cc1 | > 100 µM | > 100 µM |  | > 100 µM | > 100 µM | > 100 µM |  | > 100 µM | > 100 µM | > 100 µM | > 100 µM | > 100 µM | > 100 µM | > 100 µM | > 100 µM | > 100 µM
N#CC(NNC(=O)c1ccccc1O)c1ccccc1 (stereo unspecified) | > 100 µM | > 100 µM | > 100 µM | > 100 µM | > 100 µM | > 100 µM |  | 61.8 µM | > 100 µM | > 100 µM | 24.8 µM | > 100 µM | > 100 µM | > 100 µM |  | 
COc1cc(C2c3cc4c(cc3OC(NCc3ccccc3)C2C)OCO4)cc(OC)c1OC (stereo unspecified) | 44.1 µM | 0.982 µM | 26.5 µM | 3.32 µM | > 37.8 µM | 67.1 µM |  |  | 0.673 µM | > 100 µM |  | > 36 µM | > 100 µM | > 100 µM | 16.4 µM | 
[C-]#[N+]C1(C(=O)OCC)CC1 | > 100 µM |  | > 100 µM | > 100 µM | > 100 µM | > 100 µM | > 100 µM | > 100 µM | > 100 µM | > 100 µM | > 100 µM | > 100 µM | > 100 µM | > 100 µM |  | > 100 µM
CC(C)CCCC(C)[C@H]1CC[C@H]2[C@@H]3CC[C@H]4C[C@@H](CCC=C(c5cc(Cl)c(O)c(C(=O)O)c5)c5cc(Cl)c(O)c(C(=O)O)c5)CC[C@]4(C)[C@H]3CC[C@]12C (stereo partly specified) (tested in a mixture with another compound) | > 50 µM | > 50 µM | > 50 µM | > 50 µM | > 50 µM | > 50 µM |  | > 50 µM | > 50 µM | > 50 µM |  | > 50 µM | > 50 µM |  | > 50 µM | > 50 µM
CC1CC(C)(O)CC(C(O)CC2CC(=O)NC(=O)C2)C1=O (stereo unspecified) | 0.741 µM | 0.0916 µM | 1.53 µM | 1.61 µM | 0.706 µM | 0.551 µM | 1.16 µM | 1.05 µM | 0.142 µM | 3.55 µM |  | 1.53 µM | 3.99 µM | > 100 µM |  | 3.18 µM
O=Cc1ccc(-c2cccc([N+](=O)[O-])c2)s1 | > 100 µM | > 100 µM | > 100 µM | > 100 µM | > 100 µM | > 100 µM |  | > 100 µM | > 100 µM | > 100 µM | > 100 µM | > 100 µM | > 100 µM | > 100 µM | > 100 µM | > 100 µM
O=C(CC(C(=O)c1cccs1)c1ccsc1)c1ccco1 (stereo unspecified) | > 100 µM | 77.3 µM | 50.1 µM | 29.7 µM |  | 43.5 µM | > 100 µM | 49.7 µM | > 100 µM | > 100 µM | > 100 µM | > 100 µM | > 100 µM | > 100 µM |  | 80.3 µM
O=S1c2ccccc2SCSc2ccccc21 | > 100 µM | > 100 µM |  | > 100 µM | 75.8 µM | > 100 µM | > 100 µM | > 100 µM | > 100 µM |  | 91.1 µM |  | > 100 µM |  |  | > 100 µM
CC(C)(C)c1cc(C(=O)/C=C/c2ccc3c(c2)CCO3)cc(C(C)(C)C)c1O | 11.2 µM | 22.1 µM | > 31.5 µM | > 27.2 µM | > 100 µM | 5.25 µM |  | 0.579 µM |  | > 100 µM | 7.39 µM | > 100 µM | > 25.9 µM |  | > 63.6 µM | > 100 µM
Cc1ccc(S(=O)(=O)c2c3[nH]c4ccccc4nc3n3c2nc2ccccc23)cc1 | > 100 µM | > 100 µM | > 100 µM |  | > 100 µM | > 100 µM |  |  |  | > 100 µM | > 100 µM | > 100 µM | > 100 µM | > 100 µM |  | 
COc1ccc(CCc2ccccc2CC(=O)O)cc1 | > 100 µM | > 100 µM | > 100 µM | > 100 µM | > 100 µM | > 100 µM |  | > 100 µM | > 100 µM | > 100 µM | > 100 µM | > 100 µM | > 100 µM | > 100 µM |  | 
CCCCCCCSCC1C(=O)C23C(O)C1CCC2C12COC3(O)C(O)C1C(C)(C)CCC2O (stereo unspecified) | 26.7 µM | 15.7 µM | 14 µM | 30 µM | 15.8 µM | 24.7 µM |  | 27.1 µM | 33.4 µM | 22.7 µM | 23.6 µM | 3.23 µM | 29.5 µM | 19.4 µM |  | 
CC1SC(=O)SC1C (stereo unspecified) | > 100 µM |  | > 100 µM |  | > 100 µM | > 100 µM | > 100 µM |  | > 100 µM | > 100 µM | > 100 µM | > 100 µM | > 100 µM | > 100 µM |  | > 100 µM
CC1=NN(C(=O)c2ccc(Cl)cc2)C(=O)/C1=C/c1ccc(O)cc1 | > 100 µM | > 100 µM | > 100 µM | > 100 µM | > 100 µM | > 100 µM |  | > 100 µM | > 100 µM | > 100 µM |  | > 100 µM | > 100 µM | > 100 µM |  | 
C=CCCCCCC(O)C(O)C/C=C\C/C=C\CC (stereo unspecified) | > 18.8 µM | > 18.8 µM | > 18.8 µM | > 18.8 µM | > 18.8 µM | > 18.8 µM |  | > 18.8 µM | > 18.8 µM | > 18.8 µM | > 18.8 µM | > 18.8 µM | > 18.8 µM | > 18.8 µM |  | 
Clc1ccc(-c2nnc(C34CC5CC(CC(C5)C3)C4)o2)cc1 | > 100 µM | > 100 µM | > 100 µM | > 100 µM | > 100 µM | > 100 µM | > 100 µM | > 100 µM | > 100 µM | > 100 µM | > 100 µM | > 100 µM |  | > 100 µM |  | > 100 µM
O=C(NCC(C(=O)OCc1ccccc1)C(=O)OCc1ccccc1)OCc1ccccc1 | > 100 µM | > 100 µM |  | > 100 µM | > 100 µM | > 100 µM | > 100 µM | > 100 µM | > 100 µM | > 100 µM | > 100 µM | > 100 µM | > 100 µM | > 100 µM | > 100 µM | 
CCSC(=O)/C=C1\CN(C(=O)OC(C)(C)C)C1C(=O)OC(C)(C)C (stereo unspecified) | 6.23 µM | 13.3 µM | 3.97 µM | > 35.4 µM | 4.63 µM | 3.98 µM |  | 3.76 µM | 25 µM | 3.67 µM | 2.48 µM | 4.1 µM | 6.39 µM | 8.91 µM | 22.4 µM | 13.4 µM
O=CC1C[C@@H](N2C(=O)O[C@@H](c3ccccc3)[C@H]2c2ccccc2)[C@@H]1COCc1ccccc1 (stereo partly specified) | 31.2 µM | > 100 µM |  | 37.8 µM | > 100 µM | 34.2 µM | 38.1 µM | 46.3 µM | 39.9 µM | 40.4 µM | 45.7 µM | 77.1 µM | 44.5 µM | 41.7 µM | 43.3 µM | 
CO/N=C(/C(=O)OC)c1ccccc1COc1cccc(C(F)(F)F)c1 | > 100 µM | 56.1 µM | 65.1 µM | > 100 µM | > 100 µM | > 100 µM | > 100 µM | 98 µM | > 100 µM | > 100 µM |  | > 100 µM | 55.4 µM | 52.6 µM |  | 64.7 µM
O=[N+]([O-])/C=C/COCc1cc2c(cc1Br)OCO2 | 30.6 µM | 35.6 µM | 11.5 µM | 45.4 µM | > 100 µM | 29.9 µM | 32.8 µM | 30.9 µM | > 100 µM | 25.4 µM | 54.1 µM | 39.4 µM | 34.8 µM | 33.3 µM |  | 41.6 µM
CCOC(=O)C(=CNC(=S)Nc1c(CC)cccc1CC)C(=O)OCC | > 100 µM | > 100 µM | > 100 µM | > 100 µM | > 100 µM | > 100 µM | > 100 µM | > 100 µM | > 100 µM | > 100 µM | > 100 µM | > 100 µM | > 100 µM | > 100 µM |  | > 100 µM
CSC(=S)OC1C(CO[Si](C)(C)C(C)(C)C)OC2OC(C)(C)OC21 (stereo unspecified) | 42 µM | > 100 µM | 34 µM | 24.7 µM | 31 µM | > 100 µM | > 100 µM | 37.5 µM | 32.2 µM | > 100 µM | 30.4 µM | 31.9 µM | 49 µM | 34.8 µM | 67 µM | 
